Experimental data published in patent publication US8188141B2, “Isomigrastatin analogs in the treatment of cancer” (Sloan-Kettering Institute for Cancer Research, priority 2004, dated 2012).
Like-named read-outs stand apart in the source and are kept apart here.

Assays:
[1] = test system: Ovcar3 ovarian cancer cells; assay: Chamber cell migration (transwell) assay; type: cell-based, human; settings: for IC50: OVCAR-3; for inhibiting the migration of human ovarian cancer cells in the transwell assay: Ovcar3
Procedure: Cell migrations of Ovcar3 ovarian cancer cells were assayed with 8 μm of microporous 6.5-mm transwell plates (Corning). 100 wl of 5×10^4 cells in serum-free RPMI1640 medium containing 0.5% BSA were added to the upper chamber and 600 μl of medium with 10% fetal bovine serum was added to the lower chamber. Transwells were incubated for 12 hours with following concentrations of chemical compounds in both upper and lower chambers (1 nM, 10 nM, 100 nM 1 μM, 10 μM). Cells on the inside of the transwell inserts were removed with a cotton swab, and cells on the under side of the insert were fixed and stained. Photographs of three random regions were taken and the number of cells was counted to calculate the average number of cells that had transmigrated. Data shown is the average of at least three experiments.

[2] = test system: Ovcar3 tumor cells; assay: Wound healing assay; type: cell-based, human; settings: 250 nM
Procedure: The tumor cells (Ovcar3) were seeded into 24-multiwell plates (Becton-Dickinson) and cultivated until the cells formed a confluent monolayer. Wounds were set by horizontally scratching the monolayer with a sterile pipette tip. The cells were thereafter washed twice with Phosphate Buffered Saline (PBS) to remove detached cells. Growth media was then added containing 250 nM of the chemical compounds (21, 22, and 30) and incubated at 37° C. The cells were photographed at the beginning of the experiment and after 24 to assess the progression of cell migration into the wound.

[3] = test system: human ovarian tumor cell line OVCAR3; assay: In vivo metastatic model (ovarian xenograph, luciferase tumor imaging); parameters: species or system mouse; settings: treated mice
Source text: The human ovarian tumor cell line OVCAR3 was transduced with a triple fusion gene HSV-TK/eGFP/FLuc, expressing thymidine kinase, enhanced green fluorescence protein and firefly luciferase. Whole animal imaging by luciferase bioluminescence (FIG. 5A), allowed identification and quantification of disseminated tumor. We quantified the tumor burden in each organ, by sacrificing the mouse shortly after luciferin injecting and imaging of the dissected organs (lung, liver and spleen) (FIG. 5B). In all instances tumor engraftment was initiated with 1−5×10^7 cells and the recipients received 3 Gy irradiation 10 days before tumor engraftment. These tumor cells generated bulky omental metastases with diffuse microscopic peritoneal carcinomatosis causing ascites (FIG. 5A) with, significant pleural effusion and liver, lung and paraaortic metastases (FIG. 6).

[4] = test system: human tumor cells; settings: Nakae et al., J. Antibiot., 2001; cited from earlier work
[5] = test system: human tumor cells; settings: Nakae et al., J. Antibiot., 2001; cited from earlier work; remark: listed apart in the source
[6] = Stability in mice plasma; type: in vitro ADME
[7] = Homo sapiens, Ovcar3 cells, 12 hours, read-out: IC50, transwell assay
[8] = after 12h, human ovarian cancer cells, read-out: concentration at which 50% of the migration was inhibited in the transwell assay

COCO[C@H]1[C@H](C)COC(=O)CCCC/C=C/[C@@H]1OC [Compound 21]
IC50 [1, 7]: 75 ± 6.5 nM
IC50 [1, 8]: 75 nM
inhibiting the migration of human ovarian cancer cells in the transwell assay [1]: highly potent
closure of the scar in the wound healing assay [2]: inhibited the closure of the scar

CO[C@H]1/C=C/CCCCC(=O)OC[C@@H](C)[C@@H]1O [Compound 22]
IC50 [1, 7]: 738 ± 267 nM

CO[C@H]1/C=C/CC/C=C/COC[C@@H](C)[C@@H]1O [Compound 30]
IC50 [1, 7]: 27 ± 5.8 nM
IC50 [1, 8]: 27 nM
inhibiting the migration of human ovarian cancer cells in the transwell assay [1]: highly potent
closure of the scar in the wound healing assay [2]: inhibited the closure of the scar
tumor metastasis, Luciferase tumor imaging [3]: significant inhibition of tumor metastasis

CO[C@H]1/C=C/CC/C=C/C(=O)O[C@H]([C@H](C)C(=O)CCCC2CC(=O)NC(=O)C2)/C(C)=C\[C@@H](C)[C@@H]1O [Migrastatin]
migration of human tumor cells [4]: inhibit
anchorage-independent growth of human tumor cells [5]: inhibit

CO[C@H]1/C=C/CC/C=C/COC/C(C)=C\[C@@H](C)[C@@H]1O [compound 57]
IC50 [1, 7]: 180 nM

CO[C@H]1/C=C/CCCCCOC/C(C)=C\[C@@H](C)[C@@H]1O [compound 61]
stability in mice plasma [6]: stable

CO[C@H]1[C@H](C)/C=C(/C)COCCCCC/C=C/[C@@H]1OC [compound 62]
IC50 [1, 7]: 180 nM
